From patent US10344019B2 (priority 2010, dated 2019) come the findings set out here.

Holding throughout (assay): microbe, parasite or virus in culture
What all share (assay type): cell-based

Experiment [1] has as its system HCV 4a Rluc cells (NS5A chimeric genotype 1b Con1 replicon with genotype 4a NS5A gene). Particulars: Hepatitis C virus, read-out: 4a. The procedure, abridged: (§1)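 Replicon cells stably carrying the listed RLuc-encoding dicistronic replicons were seeded and treated with DMSO serial dilutions of compound (10 mM stocks) diluted into culture medium. After 72 h, cells were lysed and Renilla luciferase activity measured. EC50 was derived by non-linear regression.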

Experiment [2] concerns HCV 1a RLuc cells (dicistronic genotype 1a H77 replicon, RLuc reporter). The following applies: Hepatitis C virus, read-out: 1a. An outline of the steps:
as §1

Experiment [3] deals with HCV 2a JFH-1 Rluc cells (dicistronic genotype 2a JFH-1 replicon, RLuc reporter). Particulars: Hepatitis C virus, genotype 2a JFH-1 replicon, read-out: 2a JFH. The procedure, abridged: as §1
In experiment [4] the test system is HCV 3a RLuc cells (NS5A chimeric genotype 1b Con1 replicon with consensus genotype 3a NS5A gene). The following applies: Hepatitis C virus. An outline of the steps:
as §1

Experiment [5] has as its system HCV 1b RLuc cells (dicistronic genotype 1b Con1 replicon, RLuc reporter). Particulars: Hepatitis C virus, read-out: 1b (nM). The procedure, abridged:
as §1

Setting [6] is: read-out: 3a, genotype 3a replicon.
The mark [7] stands for this setting: genotype 1a H77 replicon, RLuc reporter.
The mark [8] stands for this setting: read-out: 3a, genotype 3a NS5A chimeric 1b Con1 replicon.

Read-outs that look alike come from different tables or passages of the source. Bounds are passed on as bounds.

With `COC(=O)N[C@H](C(=O)N1[C@@H]2CC[C@@H](C2)[C@H]1c1nc2ccc3cc(-c4ccc5c(ccc6nc([C@@H]7C[C@H]8C[C@H]8N7C(=O)[C@H](NC(=O)OC)c7ccccc7)[nH]c65)c4)ccc3c2[nH]1)C(C)C` [Example 344], the EC50 was 0.001 to 0.99 nM in experiment [1]; 0.001 to 0.999 nM in experiment [2] (genotype 1a replicon); 0.001 to 0.999 nM in experiment [3]; 0.001 to 0.99 nM in experiment [4] (setting [6]); 0.01 nM in experiment [5].
Regarding `COC(=O)N[C@H](C(=O)N1CCS[C@@H]1c1nc2ccc3cc(-c4ccc(-c5cnc([C@@H]6CCCN6C(=O)[C@@H](NC(=O)OC)C6CCOCC6)[nH]5)cc4)ccc3c2[nH]1)C(C)C` [Example 332], the EC50 in experiment [1] was 0.001 to 0.99 nM; in experiment [2] (genotype 1a replicon), 1 to 44 nM; in experiment [3], 0.001 to 0.999 nM; in experiment [4] (setting [6]) it was 1 to 4.99 nM; in experiment [5], 1.25 nM.
Consider `COC(=O)N[C@H](C(=O)N1c2ccccc2C[C@H]1c1ncc(-c2ccc(-c3ccc(-c4cnc([C@@H]5Cc6ccccc6N5C(=O)[C@@H](NC(=O)OC)C(C)C)[nH]4)cc3)cc2)[nH]1)C(C)C` [Example 267], for which the EC50 in experiment [1] was 0.001 to 0.99 nM; in experiment [2] (setting [7]), 1 to 44 nM; in experiment [3] (RLuc reporter), more than 44 nM; in experiment [4] (setting [8]), more than 5 nM; in experiment [5], 0.045 nM.
For the molecule `COC(=O)N[C@H](C(=O)N1CCC[C@H]1c1ncc(-c2ccc3c4ccc(-c5cnc([C@@H]6CCCN6C(=O)[C@@H](NC(=O)OC)C6CCOCC6)[nH]5)cc4c4ccccc4c3c2)[nH]1)C(C)C` [Example 293], the EC50 in experiment [1] was 0.001 to 0.99 nM; in experiment [2] (genotype 1a replicon), 0.001 to 0.999 nM; in experiment [3] it was 0.001 to 0.999 nM; in experiment [4] (setting [6]), 0.001 to 0.99 nM; in experiment [5] it was 0.042 nM.
`COC(=O)N[C@H](C(=O)N1CCC[C@H]1c1nc2ccc3cc(C#Cc4ccc(-c5cnc([C@@H]6CCCN6C(=O)[C@H](NC(=O)OC)c6ccccc6)[nH]5)cc4)ccc3c2[nH]1)[C@@H](C)OC` [Example 268]: the EC50 in experiment [1] was 0.001 to 0.99 nM; in experiment [2] (setting [7]), 0.001 to 0.999 nM; in experiment [3] (RLuc reporter), 0.001 to 0.999 nM; in experiment [4] (setting [8]), 0.001 to 0.99 nM; in experiment [5], 0.007 nM.
`COC(=O)N[C@H](C(=O)N1CCC[C@H]1c1ncc(-c2ccc3c(c2)C(=C(C)C)c2cc(-c4cnc([C@@H]5CCCN5C(=O)[C@@H](NC(=O)OC)C(C)C)[nH]4)ccc2-3)[nH]1)C(C)C` [Example 249]: the EC50 in experiment [1] was 0.001 to 0.99 nM; in experiment [2] (setting [7]), 1 to 44 nM; in experiment [3] (RLuc reporter), 1 to 44 nM; in experiment [4] (setting [8]) it was more than 5 nM; in experiment [5] it was 0.014 nM.
As to `CCN(CC)C(C(=O)N1CCC[C@H]1c1ncc(-c2ccc(-c3ccc4c(c3)C(F)(F)c3cc(-c5cnc([C@@H]6CCCN6C(=O)C(NC(=O)OC)C(C)C)[nH]5)ccc3-4)cc2)[nH]1)c1ccccc1` (stereo partly shown) [Example 200], the EC50 is 0.001 to 0.99 nM in experiment [1]; 1 to 44 nM in experiment [2] (setting [7]); 1 to 44 nM in experiment [3] (RLuc reporter); 1 to 4.99 nM in experiment [4] (setting [8]); 0.009 nM in experiment [5].
For the molecule `COC(=O)NC(C(=O)N1CC2(CC2)C[C@H]1c1ncc(-c2ccc(-c3ccc4cc(-c5cnc([C@@H]6CCCN6C(=O)[C@H](NC(=O)OC)c6ccccc6)[nH]5)ccc4c3)cc2)[nH]1)[C@@H](C)OC` (stereo partly shown) [Example 262], the EC50 in experiment [1] was 0.001 to 0.99 nM; in experiment [2] (setting [7]) it was 0.001 to 0.999 nM; in experiment [3] (RLuc reporter) it was 0.001 to 0.999 nM; in experiment [4] (setting [8]) it was 0.001 to 0.99 nM; in experiment [5], 0.008 nM.
For the molecule `COC(=O)N[C@H](C(=O)N1CCC[C@H]1c1ncc(-c2ccc3c4ccc(-c5cnc([C@@H]6CCCN6C(=O)[C@@H](NC(=O)OC)C(C)C)[nH]5)cc4c4nccnc4c3c2)[nH]1)C(C)C` [Example 18], the EC50 was 0.001 to 0.99 nM in experiment [1]; 0.001 to 0.999 nM in experiment [2] (72 h, Table 1, genotype 1a H77 replicon, 72 hours); 0.001 to 0.999 nM in experiment [3] (72 h, Table 1, 72 hours); 1 to 4.99 nM in experiment [4] (read-out: 3a, Table 1, genotype 3a NS5A chimeric replicon); 0.018 nM in experiment [5] (72 h).
For the molecule `COC(=O)N[C@H](C(=O)N1[C@@H]2CC[C@@H](C2)[C@H]1c1nc2ccc3cc(-c4ccc(-c5cnc([C@@H]6C[C@H]7C[C@H]7N6C(=O)[C@@H](NC(=O)OC)C(C)C)[nH]5)cc4)ccc3c2[nH]1)C(C)C` [Example 340], the EC50 in experiment [1] was 0.001 to 0.99 nM; in experiment [2] (genotype 1a replicon) it was 0.001 to 0.999 nM; in experiment [3], 0.001 to 0.999 nM; in experiment [4] (setting [6]) it was 0.001 to 0.99 nM; in experiment [5], 0.013 nM.
Consider `COC(=O)N[C@H](C(=O)N1CCC[C@H]1c1nc2c([nH]1)-c1ccc(-c3ccc4c(ccc5nc([C@@H]6CC7(CN6C(=O)[C@H](NC(=O)OC)c6ccccc6)OCCO7)[nH]c54)c3)cc1CC2)C(C)C` [Example 366], for which the EC50 was 0.001 to 0.99 nM in experiment [1]; 0.001 to 0.999 nM in experiment [2] (genotype 1a replicon); 0.001 to 0.999 nM in experiment [3]; 0.001 to 0.99 nM in experiment [4] (setting [6]); 0.075 nM in experiment [5].
Consider `COC(=O)N[C@H](C(=O)N1CCC[C@H]1c1ncc(-c2ccc(-c3ccc4c(ccc5nc([C@@H]6CC7(CN6C(=O)[C@@H](NC(=O)OC)[C@@H](C)OC)OCCO7)[nH]c54)c3)cc2)[nH]1)C(C)C` [Example 90], for which the EC50 is 0.001 to 0.99 nM in experiment [1]; 0.001 to 0.999 nM in experiment [2] (72 h, Table 2, genotype 1a H77 replicon, 72 hours); 0.001 to 0.999 nM in experiment [3] (72 h, Table 2, 72 hours); 1 to 4.99 nM in experiment [4] (read-out: 3a, Table 2, genotype 3a NS5A chimeric replicon); 0.044 nM in experiment [5] (72 h).
As for `COC(=O)N[C@H](C(=O)N1CCC[C@H]1c1ncc(-c2cccc(-c3ccc4cc(-c5cnc([C@@H]6CCCN6C(=O)[C@@H](NC(=O)OC)C(C)C)[nH]5)ccc4c3)c2)[nH]1)C(C)C` [Example 243], the EC50 was 0.001 to 0.99 nM in experiment [1]; more than 44 nM in experiment [2] (setting [7]); more than 44 nM in experiment [3] (RLuc reporter); more than 5 nM in experiment [4] (setting [8]); 4.59 nM in experiment [5].
`COC(=O)N[C@H](C(=O)N1[C@@H]2CC[C@@H](C2)[C@H]1c1ncc(-c2ccc(-c3ccc4c(ccc5nc([C@@H]6C[C@H]7C[C@H]7N6C(=O)[C@@H](NC(=O)OC)C6CCOCC6)[nH]c54)c3)cc2)[nH]1)C(C)C` [Example 378]: the EC50 was 0.001 to 0.99 nM in experiment [1]; 0.001 to 0.999 nM in experiment [2] (genotype 1a replicon); 0.001 to 0.999 nM in experiment [3]; 0.001 to 0.99 nM in experiment [4] (setting [6]); 0.036 nM in experiment [5].
For the molecule `COC(=O)N[C@H](C(=O)N1[C@H]2CC[C@H](C2)[C@H]1c1nc2ccc3cc(-c4ccc5c(ccc6nc([C@@H]7CCCN7C(=O)[C@@H](NC(=O)OC)C7CCOCC7)[nH]c65)c4)ccc3c2[nH]1)C(C)C` [Example 338], the EC50 in experiment [1] was 0.001 to 0.99 nM; in experiment [2] (genotype 1a replicon), 0.001 to 0.999 nM; in experiment [3], 0.001 to 0.999 nM; in experiment [4] (setting [6]), 0.001 to 0.99 nM; in experiment [5], 0.127 nM.
In the case of `CC#Cc1cc(-c2cnc([C@@H]3CCCN3C(=O)[C@@H](NC(=O)OC)C(C)C)[nH]2)ccc1-c1ccc2c(ccc3nc([C@@H]4CCCN4C(=O)[C@@H](NC(=O)OC)C(C)C)[nH]c32)c1` [Example 372], the EC50 in experiment [1] is 0.001 to 0.99 nM; in experiment [2] (genotype 1a replicon), 0.001 to 0.999 nM; in experiment [3], 0.001 to 0.999 nM; in experiment [4] (setting [6]), 0.001 to 0.99 nM; in experiment [5], 0.008 nM.
With `COC(=O)N[C@H](C(=O)N1[C@@H]2C[C@@H]2C[C@H]1c1nc2ccc3cc(-c4ccc(-c5cnc([C@@H]6[C@H]7CC[C@H](C7)N6C(=O)[C@@H](NC(=O)OC)[C@@H](C)OC)[nH]5)cc4)ccc3c2[nH]1)C(C)C` [Example 336], the EC50 in experiment [1] is 0.001 to 0.99 nM; in experiment [2] (genotype 1a replicon), 0.001 to 0.999 nM; in experiment [3] it was 0.001 to 0.999 nM; in experiment [4] (setting [6]), 1 to 4.99 nM; in experiment [5], 0.013 nM.
